Key:
Format in all cases: in vivo
[1] = system: barnyard grass (Echinochloa crus-galli Beauv.); test: Test Example 1: herbicidal effect on paddy field weeds before emergence; settings: Dosage 5 kg/ha
How it was run: (§1)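 Seeds of both weeds, still ungerminated, in soil pots held under paddy conditions received a set dose of test solution as soil treatment. After twenty-one days, control relative to untreated pots was calculated and rated on a scoring scale.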

[2] = system: bulrush (Scirpus juncoides Roxb.); test: as above; settings: Dosage 5 kg/ha
How it was run: as §1

[3] = system: barnyard grass (Echinochloa crus-galli Beauv.); test: Test Example 2: herbicidal effect on paddy field weeds after emergence; settings: Dosage 5 kg/ha; one-leaved stage; 21 days after treatment
How it was run: (§2)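 Weeds were sown in 1/10000 are pots of soil flooded to paddy conditions and grown to the one-leaf stage, then the soil was treated with a solution of compound at a predetermined dosage.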

[4] = system: bulrush (Scirpus juncoides Roxb.); test: as above; settings: Dosage 5 kg/ha; one-leaved stage; 21 days after treatment
How it was run: as §2

[5] = system: monochoria (Monochoria vaginalis Presl); test: as above; settings: Dosage 5 kg/ha; one-leaved stage; 21 days after treatment
How it was run: as §2

[6] = system: barnyard grass (Echinochloa crus-galli Beauv.), Ec; test: Test Example 3: herbicidal effect on upland weeds before emergence; settings: dosage 5 kg/ha
How it was run: (§3)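 Herbicidal activity was rated from kill rate determined 14 days post-spray, the compound having been applied pre-emergence as a liquid agent.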

[7] = system: bird's eye speedwell (Veronica persica Poir.), Vp; test: as above; settings: dosage 5 kg/ha
How it was run: as §3

[8] = system: cleavers (Galium aparine L.), Ga; test: as above; settings: dosage 5 kg/ha
How it was run: as §3

[9] = system: cocklebur (Xanthium strumarium L.), Xs; test: as above; settings: dosage 5 kg/ha
How it was run: as §3

[10] = system: forxtail grass (Alopecurus aequalis var. amurensis Ohwi), Am; test: as above; settings: foxtail grass, dosage 5 kg/ha
How it was run: as §3

[11] = system: velvetleaf (Abutilon theophtasti L.), At; test: as above; settings: dosage 5 kg/ha
How it was run: as §3

[12] = system: soybean plant (So); test: Test Example 3: phytotoxicity to upland crop plants, treatment before emergence; settings: dosage 5 kg/ha
How it was run: (§4)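 Crop injury to soybean and wheat was judged on a phytotoxicity scale 14 days after a pre-emergence spray of a liquid formulation at a prescribed concentration of compound.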

[13] = system: wheat (Wh); test: as above; settings: dosage 5 kg/ha
How it was run: as §4

[14] = system: barnyard grass (Echinochloa crus-galli Beauv.), Ec; test: Test Example 4: herbicidal effect on upland weeds after emergence; settings: dosage 5 kg/ha; sprayed after emergence; judged 14 days after treatment
How it was run: (§5)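 Post-emergence foliar spray at a prescribed concentration, applied once the sown weeds and soybean reached defined leaf stages in soil vats; herbicidal effect and soybean injury scored after 14 days.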

[15] = system: bird's eye speedwell (Veronica persica Poir.), Vp; test: as above; settings: dosage 5 kg/ha; sprayed after emergence; judged 14 days after treatment
How it was run: as §5

[16] = system: cleavers (Galium aparine L.), Ga; test: as above; settings: dosage 5 kg/ha; sprayed after emergence; judged 14 days after treatment
How it was run: as §5

[17] = system: cocklebur (Xanthium strumarium L.), Xs; test: as above; settings: dosage 5 kg/ha; sprayed after emergence; judged 14 days after treatment
How it was run: as §5

[18] = system: forxtail grass (Alopecurus aequalis var. amurensis Ohwi), Am; test: as above; settings: dosage 5 kg/ha; sprayed after emergence; judged 14 days after treatment
How it was run: as §5

[19] = system: velvetleaf (Abutilon theophtasti L.), At; test: as above; settings: dosage 5 kg/ha; sprayed after emergence; judged 14 days after treatment
How it was run: as §5

[20] = system: soybean plant; test: Test Example 4: phytotoxicity to upland crop plants, treatment after emergence; settings: dosage 5 kg/ha, sprayed after emergence, judged 14 days after treatment
How it was run: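 Weeds and soybean grown in soil-filled vats to set leaf stages, then sprayed post-emergence with the compound at a prescribed concentration. Weed-killing rate and crop phytotoxicity judged 14 days after treatment.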

[21] = system: wheat; test: as above; settings: dosage 5 kg/ha, sprayed after emergence, judged 14 days after treatment
How it was run: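 Upland weeds and crop plants (soybean, wheat) are grown from seed in soil until they reach given leaf stages, then treated by spraying with the compound-containing agent; effects are judged two weeks later.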

Compound	Pre-emergence treatment Barnyard grass (herbicidal effect) [1]	Pre-emergence treatment Bulrush (herbicidal effect) [2]	Post-emergence treatment Barnyard grass (herbicidal effect) [3]	Post-emergence treatment Bulrush (herbicidal effect) [4]	Post-emergence treatment Monochoria (herbicidal effect) [5]	Herbicidal effect Ec [6]	Herbicidal effect Vp [7]	Herbicidal effect Ga [8]	Herbicidal effect Xs [9]	Herbicidal effect Am [10]	Herbicidal effect At [11]	Phytotoxicity So [12]	Phytotoxicity Wh [13]	Herbicidal effect Ec [14]	Herbicidal effect Vp [15]	Herbicidal effect Ga [16]	Herbicidal effect Xs [17]	Herbicidal effect Am [18]	Herbicidal effect At [19]	Phytotoxicity So [20]	further results
CCCNC(=O)c1nc2c(cc1C(=O)Nc1c(CC)ccc(Cl)c1CC)CCSC2 [compound 534]	5 (Weed-killing rate is 100%.)	5 (Weed-killing rate is 100%.)	5 (Weed-killing rate is 100%.)	5 (Weed-killing rate is 100%.)	5 (Weed-killing rate is 100%.)	5 (Weed-killing rate is 100%.)	5 (Weed-killing rate is 100%.)	5 (Weed-killing rate is 100%.)	5 (Weed-killing rate is 100%.)	5 (Weed-killing rate is 100%.)	5 (Weed-killing rate is 100%.)	3 (Crop-killing rate is 70-89%.)	4 (Crop-killing rate is 90-99%.)	5 (Weed-killing rate is 100%.)	5 (Weed-killing rate is 100%.)	5 (Weed-killing rate is 100%.)	5 (Weed-killing rate is 100%.)	5 (Weed-killing rate is 100%.)	5 (Weed-killing rate is 100%.)	4 (Crop-killing rate is 90-99%.)	Phytotoxicity Wh [21]: 4 (Crop-killing rate is 90-99%.)
CCc1ccc(Cl)c(CC)c1NC(=O)c1cc2ccccc2nc1C(=O)NC [359-1]	5 (Weed-killing rate is 100%.)	5 (Weed-killing rate is 100%.)	5 (Weed-killing rate is 100%.)	5 (Weed-killing rate is 100%.)	5 (Weed-killing rate is 100%.)	5 (Weed-killing rate is 100%.)	5 (Weed-killing rate is 100%.)	5 (Weed-killing rate is 100%.)	5 (Weed-killing rate is 100%.)	5 (Weed-killing rate is 100%.)	5 (Weed-killing rate is 100%.)	0 (Crop-killing rate is 0-20% (No Phytotoxicity).)	0 (Crop-killing rate is 0-20% (No Phytotoxicity).)	5 (Weed-killing rate is 100%.)	5 (Weed-killing rate is 100%.)	5 (Weed-killing rate is 100%.)	5 (Weed-killing rate is 100%.)	5 (Weed-killing rate is 100%.)	5 (Weed-killing rate is 100%.)	3 (Crop-killing rate is 70-89%.)	Phytotoxicity Wh [21]: 2 (Crop-killing rate is 40-69%.)
CCCNC(=O)c1nc2c(cc1C(=O)Nc1c(CC)ccc(Cl)c1CC)CCCS2 [compound 510]	5 (Weed-killing rate is 100%.)	5 (Weed-killing rate is 100%.)	5 (Weed-killing rate is 100%.)	5 (Weed-killing rate is 100%.)	5 (Weed-killing rate is 100%.)	5 (Weed-killing rate is 100%.)	5 (Weed-killing rate is 100%.)	5 (Weed-killing rate is 100%.)	5 (Weed-killing rate is 100%.)	5 (Weed-killing rate is 100%.)	5 (Weed-killing rate is 100%.)	4 (Crop-killing rate is 90-99%.)	5 (Crop-killing rate is 100%.)	5 (Weed-killing rate is 100%.)	5 (Weed-killing rate is 100%.)	5 (Weed-killing rate is 100%.)	5 (Weed-killing rate is 100%.)	5 (Weed-killing rate is 100%.)	5 (Weed-killing rate is 100%.)	4 (Crop-killing rate is 90-99%.)	Phytotoxicity Wh [21]: 5 (Crop-killing rate is 100%.)
Cc1c(Cl)cccc1NC(=O)c1nc2ccccc2nc1C(=O)NC1CCCC1 [compound 1327]	5 (Weed-killing rate is 100%.)	4 (Weed-killing rate is 90-99%.)	4 (Weed-killing rate is 90-99%.)	4 (Weed-killing rate is 90-99%.)	5 (Weed-killing rate is 100%.)	5 (Weed-killing rate is 100%.)	5 (Weed-killing rate is 100%.)	4 (Weed-killing rate is 90-99%.)	4 (Weed-killing rate is 90-99%.)	5 (Weed-killing rate is 100%.)	5 (Weed-killing rate is 100%.)	3 (Crop-killing rate is 70-89%.)	5 (Crop-killing rate is 100%.)	5 (Weed-killing rate is 100%.)	5 (Weed-killing rate is 100%.)	5 (Weed-killing rate is 100%.)	4 (Weed-killing rate is 90-99%.)	5 (Weed-killing rate is 100%.)	5 (Weed-killing rate is 100%.)	3 (Crop-killing rate is 70-89%.)	Phytotoxicity Wh [21]: 4 (Crop-killing rate is 90-99%.)

From patent US6444617B1, “Fused-heterocycle dicarboxylic acid diamide derivatives or salts thereof, herbicide and usage thereof” (Nihon Nohyaku Co., Ltd., priority 1998, dated 2002)
